Source: patent US7700601B2, “Substituted indazoles of formula 1.0 that are kinase inhibitors” (Schering Corporation, priority 2006, dated 2010)
“And” between values parts separate entries of the source, which are not always exact repeats. Equal entries are not always repeated.

Molecular target: T1, Akt1 (Homo sapiens, UniProt P31749)
T1 construct: (His)6 (N); made in house; host or cells: Sf9 insect cells (baculovirus, pBlueBacHis2B)
Experiment: Akt1 kinase assay (33P phosphorylation of biotinylated Gsk3-derived peptide, streptavidin Flash plates)
Format: biochemical
From the text: The assay described below measures the phosphorylation of a biotinylated peptide by active recombinant Akt1 and other kinase isoforms. The biotinylated peptide contains a consensus sequence derived from Akt substrate Gsk3 (Glycogen synthase kinase 3). The ^33P-labeled peptide substrate was captured by streptavidin-coated Flash plates.
Active recombinant Akt1 was expressed in Sf9 insect cells and purified as described by Kumar et al., Biochim. Biophys. Acta. Jun. 15, 2001, 1526(3), 257-268. Biotinylated peptide of the sequence Bio-ahx-RPRAASF was purchased from Syn Pep (Dublin, Calif., USA).
Human Akt1 cDNA was amplified from a marathon-ready human lung cDNA library (Clonetech) using nested oligo primers as described below. The first round of amplification was carried out using the following primers; Akt1F1 ([…]) (SEQ ID NO: 1 and Akt1R1 (TCCATC […]) (SEQ ID NO: 2) and for the second round amplification, the primers of the following sequence were used; Akt1F2 (GGATCCTCGG […]) (SEQ ID NO: 3) and AKT1R2 (GGTACCATCGTC […]) (SEQ ID NO: 4). The PCR product was subcloned into pCRScript plasmid as a BamHI/KpnI fragment and the sequence of the cDNA was confirmed by DNA sequencing. This plasmid was used as a template for reamplification of Akt1 using appropriate primers for subcloning into pBlueBaHis2B into BamH1/EcoRI sites to generate an in frame fusion to (His)6 tag and an anti-Xpress antibody epitope tag at the N-terminus. This construct was sequenced to verify the junction sequences and used for generating a recombinant baculovirus. Growth of the recombinant virus, amplification and determination of viral titer were carried out according to the instructions from the manufacturer (InVitrogen, Calif.).
Viral stocks were used to infect large scale Sf9 cells at a multiplicity of infection (MOI) of 2.5. Cells were maintained at 27° C. for 60 h and okadaic acid was added to the cultures to a concentration of 50 nM. Cells were harvested 4 h hours later by centrifugation at 1200 rpm for 30 min followed by freezing at −80° C. until further use. All purification steps were carried out at 4° C. Whole cell pellets were suspended in buffer A (20 mM sodium phosphate buffer pH 7.8, 500 mM NaCl, 1 mM sodium vanadate, 5 mM sodium fluoride, 40 mM β-glycerophosphate, 10 mM imidazole and protease inhibitor cocktail) and lysed using a microfluidizer. The cell extract was centrifuged at 16,000×g for 10 min to remove the debris and directly loaded onto Ni-NTA Superflow resin using a FPLC pump operated at 1 ml/min. The column was washed once with buffer A, once with wash buffer B (20 mM sodium phosphate pH 6.0, 1 mM sodium vanadate, 5 mM sodium fluoride and protease cocktail) and once with wash buffer B containing 0.05% Tween-20 followed by washing with buffer A until OD260 returned to basal level. Proteins were eluted with buffer A containing 200 mM imidazole. Fractions were analyzed by electrophoresis on 10% denaturing polyacrylamide gels and fractions containing 85% pure protein band at 60 KDa were pooled and dialyzed against buffer C (20 mM Tris-HCl pH 7.5, 0.5 mM EDTA, 2 mM DTT, 145 mM NaCl, 0.1 mM sodium vanadate, 5 mM sodium fluoride, 10 mM β-glycerophosphate and 20% glycerol). Purified protein was stored as aliquots at −80° C. Protein concentrations were determined using BCA protein assay reagent A (Catalog #23228). To examine the identity of the proteins, 2 μg of purified protein was electrophoresed on SDS-polyacrylamide gels and stained with coomassie blue dye or transferred to nitrocellulose membrane and probed with anti-Akt and anti-phospho-specific Akt antibodies using enhanced chemiluminescence (ECL) reagent according to the protocol described by the manufacturer (Amersham).
The kinase assay was performed in 96 well plates at room temperature. Assay solutions and plates were preincubated at room temperature for 5 min. […]

[1] = active recombinant Akt1, 2 μM cold ATP, 2 hr, room temperature
[2] = Table 2, active recombinant Akt1

T1 sequence (P31749 whole entry): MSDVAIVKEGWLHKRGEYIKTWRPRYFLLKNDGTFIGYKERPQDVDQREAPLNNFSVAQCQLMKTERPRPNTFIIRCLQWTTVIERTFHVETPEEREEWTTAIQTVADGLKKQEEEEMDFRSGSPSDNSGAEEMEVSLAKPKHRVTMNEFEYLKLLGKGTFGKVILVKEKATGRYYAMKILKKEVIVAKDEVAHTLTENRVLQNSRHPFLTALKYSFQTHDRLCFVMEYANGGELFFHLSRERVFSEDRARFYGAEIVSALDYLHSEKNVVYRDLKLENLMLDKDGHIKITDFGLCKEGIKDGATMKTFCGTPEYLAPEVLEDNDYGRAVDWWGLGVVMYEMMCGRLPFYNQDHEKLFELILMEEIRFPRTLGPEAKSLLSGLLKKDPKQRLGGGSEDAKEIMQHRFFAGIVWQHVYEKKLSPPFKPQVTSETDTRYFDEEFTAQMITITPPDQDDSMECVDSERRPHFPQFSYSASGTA

Row | SMILES | IC50 [1] | IC50 [2] [nM]
1 | Cc1ccccc1CNc1ncc(-c2ccc3[nH]nc(C)c3c2)nc1N1CCNCC1 [Example 38] | 0.98 to 240 nM | 
2 | COc1ccccc1CNc1ncc(-c2ccc3[nH]nc(C)c3c2)nc1N1CCNCC1 [Example 35] | 0.98 to 240 nM | 
3 | Cc1n[nH]c2ccc(-c3cnc(N)c(N4CCN[C@H](c5ccccc5)C4)n3)cc12 [Example 8] | 0.98 to 240 nM | 
4 | Cc1n[nH]c2ccc(-c3cnc(N(C)Cc4ccccc4)c(N4CCNCC4)n3)cc12 [Example 27] | 0.98 to 240 nM | 
5 | Cc1n[nH]c2ccc(-c3cnc(NCc4cccc(Cl)c4)c(N4CCNCC4)n3)cc12 [Example 30] | 0.98 to 240 nM | 
6 | Cc1n[nH]c2ccc(-c3cnc(N)c(NCCN)n3)cc12 |  | 74
7 | Cc1n[nH]c2ccc(-c3cnc(N)c(N4CCNCC4)n3)cc12 [Example 12] | 0.98 to 240 nM | 
8 | Cc1n[nH]c2ccc(-c3cnc(NCc4ccccc4Cl)c(N4CCNCC4)n3)cc12 [Example 31] | 0.98 to 240 nM | 
9 | Cc1n[nH]c2ccc(-c3cnc(NCc4ccc(Cl)cc4)c(N4CCNCC4)n3)cc12 [Example 29] | 0.98 to 240 nM | 
10 | Cc1n[nH]c2ccc(-c3cnc(NCc4ccccc4)c(NCCN)n3)cc12 |  | 79
11 | COc1cccc(CNc2ncc(-c3ccc4[nH]nc(C)c4c3)nc2N2CCNCC2)c1 [Example 34] | 0.98 to 240 nM | 
12 | Cc1n[nH]c2ccc(-c3cncc(N4CCN[C@@H](Cc5ccccc5)C4)n3)cc12 [Example 2, 2-[(S)-3-benzylpiperazinyl]-6-[3-methyl-1H-indazol-5-yl]pyrazine] | 0.98 to 240 nM and 0.98 to 46 nM and 0.98 nM | 1
13 | Cc1n[nH]c2ccc(-c3cnc(NCc4ccccc4)c(N4CCN[C@@H](Cc5ccccc5)C4)n3)cc12 [Example 5] | 0.98 to 240 nM | 
14 | Cc1n[nH]c2ccc(-c3cnc(N)c(N4CCN[C@@H](Cc5ccccc5)C4)n3)cc12 [Example 1, 2-amino-3-[(S)-3-benzylpiperazinyl]-5-(3-methyl-1H-indazol-5-yl)pyrazine] | 0.98 to 240 nM | 
15 | Cc1n[nH]c2ccc(-c3cnc(NCc4ccccc4)c(N4CCNCC4)n3)cc12 [Example 18] | 0.98 to 240 nM and 0.98 to 46 nM | 

More lines, now with the values ahead:

Row | IC50 [1] | IC50 [2] [nM] | SMILES
16 | 0.98 to 240 nM |  | Cc1n[nH]c2ccc(-c3cnc(NCc4ccccc4F)c(N4CCNCC4)n3)cc12 [Example 41]
17 |  | 55 | Cc1n[nH]c2ccc(-c3cnc(N)c(N4CCN[C@@H](Cc5ccccc5)C4)n3)cc12 [drawing 106]
18 |  | 148 | COc1cccc(CNc2ncc(-c3ccc4[nH]nc(C)c4c3)nc2N2CCNCC2)c1 [drawing 109]
19 |  | 129 | Cc1n[nH]c2ccc(-c3cnc(NCc4ccccc4Cl)c(N4CCNCC4)n3)cc12 [drawing 105]
20 |  | 46 | Cc1n[nH]c2ccc(-c3cnc(NCc4ccccc4)c(N4CCNCC4)n3)cc12 [drawing 101]
21 |  | 76 | Cc1n[nH]c2ccc(-c3cnc(NCc4ccccc4)c(N4CCN[C@@H](Cc5ccccc5)C4)n3)cc12 [drawing 104]
22 | 0.98 to 240 nM |  | Cc1n[nH]c2ccc(-c3cnc(NCc4c(F)cccc4Cl)c(N4CCNCC4)n3)cc12 [Example 50]
23 |  | 140 | Cc1ccccc1CNc1ncc(-c2ccc3[nH]nc(C)c3c2)nc1N1CCNCC1 [drawing 108]
24 | 0.98 to 240 nM |  | Cc1n[nH]c2ccc(-c3cnc(NCc4ccc(F)cc4)c(N4CCNCC4)n3)cc12 [Example 43]
25 | 0.98 to 240 nM and 0.98 to 46 nM |  | Cc1n[nH]c2ccc(-c3cnc(NCc4cccc(F)c4)c(N4CCNCC4)n3)cc12 [Example 42]
26 |  | 44 | Cc1n[nH]c2ccc(-c3cnc(NCc4cccc(F)c4)c(N4CCNCC4)n3)cc12 [drawing 103]
